Test results as given in patent publication US8901313B2, “6,5-heterocyclic propargylic alcohol compounds and uses therefor” (Genentech, Inc., priority 2011, dated 2014).

Assays:
[1] = target: T1, nuclear factor-kappa B (NF-kB)-inducing kinase (NIK) (Homo sapiens, UniProt Q99558); assay: NIK Enzyme Inhibition Assay (Transcreener ADP assay); type: biochemical; details: purified NIK 0.2-1 nM, 10 uM ATP, fluorescence polarization, Morrison's quadratic equation; read-out: inhibitory value (Ki) for NIK
T1 construct: made in house; host or cells: baculovirus-infected insect cells

[2] = test system: NF-kB signaling through NIK in human embryonic kidney 293 cells; assay: 293-NIK NF-kB-Luciferase reporter assay; type: cell-based; details: HEK293, 293 cells with tetracycline-inducible NIK, 1 ug/mL doxycycline, 24 hours, read-out: inhibitory value (IC50) for 293-NIK NF-kB-Luciferase activity
Description: (1) The first assay was used to profile whether a test compound can inhibit the NF-kB signally through NIK inhibition without affecting cell viability. In this assay, human embryonic kidney 293 cells was stably transfected with a tetracycline-inducible NIK DNA construct containing a cytomegalovirus promoter plus two reporter DNA constructs. One reporter encoded firefly luciferase under the control of three repeats of an NF-kB response element from the ELAM-1 gene and reflects the level of NIK activity in the cells, whereas the other reporter constitutively expressed Renilla luciferase under the control of the herpes simplex virus thymidine kinase promoter and served as a general measure of cell viability. Cells were incubated with different concentrations of compounds (0.2% DMSO final) in medium containing 1 ug/mL doxycycline and 10% tet-system approved fetal bovine serum (Clontech) for 24 hours, after which the reporters' signals were detected using the Dual Glo luciferase detection system (Promega) according to the vendor's protocol. The compounds listed in Table 1 have the corresponding inhibitory value (IC50 in micromolar) for 293-NIK NF-kB-Luciferase activity (values for compounds are presented in the same order as found in Table 1): na, 0.059, na, na, na, 0.105, 0.027, na, 20, 1.2, na, 1.8, 0.0231, 0.879, 0.0361, 0.582, na, 0.142, na, 0.403, 0.059, 0.0331, na, na, 0.0573, 1.5, na, na, 0.0722, na, na, 0.589, 12.7, 3.7, 14.9, na, 0.707, 1, 0.0311, 0.332, 0.309, 0.0142, 0.051, 2.8, 0.129, na, na, 1.5, na, na, na, 1.3, 0.062, 20, 0.31, 0.104, 0.091, 0.037, 0.085, 0.279, na, 0.305, 0.064, 0.332, 0.133, 0.168, 0.217, 0.553, na and na.

[3] = test system: REL-A (p65) nuclear translocation in HeLa cells; assay: NIK RelA Translocation Assay (classical NF-kB signaling); type: cell-based; details: Homo sapiens; HeLa cells, compounds 4.5 hours, 10 ng/mL TNF-α 30 minutes; read-out: inhibitory value (IC50) for NIK RelA Translocation Assay
Experimental: (§1) (2) A second set of cell assay was used to define the selectivity of NIK inhibitors toward inhibition of classical vs. non-classical NF-kB signaling and rely on quantification of the nuclear translocation of p52 (NF-kB2) and REL-A (p65) using high content cellular imaging. For the p52 (non-classical NF-kB signaling) nuclear translocation assay, HeLa cells were treated with different concentrations of compounds (0.2% DMSO final) in medium containing 10% fetal bovine serum and then stimulated with 100 ng/mL of an anti-lymphotoxin beta receptor antibody (R&D Systems) for 5 hours. In the REL-A nuclear translocation assay, HeLa cells were incubated with compounds (0.2% DMSO final) for 4.5 hours in medium containing 10% fetal bovine serum before stimulating them with 10 ng/mL tumor necrosis factor (TNF)-α (R&D Systems) for 30 minutes. Cells were fixed with 4% paraformaldehyde, permeabilized by adding 0.1% Triton X-100 in phosphate buffered saline, and then incubated with either 2 ug/mL anti-p52 antibody (Millipore) or 400 ng/mL anti-REL-A (p65) antibody (Santa Cruz Biotechnology). Finally, the cells were incubated with an Alexa488-labeled secondary antibody (Invitrogen) and DRAQ5 DNA stain (Biostatus). Imaging was carried out using an Opera reader (Perkin Elmer) and data are analyzed with the aid of Acapella software (Perkin Elmer). The p52 or REL-A translocation into the nucleus was quantified by the ratio of the nuclear to cytoplasmic signal intensity. The concentration of inhibitor required for 50% inhibition (IC50 values) in these cell assays were derived from the plots of signal vs. inhibitor concentration. The compounds in listed in Table 1 have the corresponding inhibitory value (IC50 in micromolar) for NIK p52 Translocation Assay (values for compounds are presented in the same order as found in Table 1, and “na” means the data for this assay is to be determined): 0.326, 0.33, na, na, na, 0.218, 0.07, na, na, na, 0.129, 7.6, 0.077, 3.4, na, 0.518, na, 0.059, 0.514, 0.127, na, na, 0.010, na, na, 0.313, 0.275, na, 0.0727, na, na, na, na, na, na, 0.194, na, 6.4, 0.22, 0.346, na, na, na and na, na, na, na, na, na, 0.447, na, 0.089, 0.479, 0.489, 0.243, 0.747, 1, na, 1.9, 0.552, 2.1, na. na, na, na, na and na.
The compounds in listed in Table 1 has the corresponding inhibitory value (IC50 in micromolar) for NIK RelA Translocation Assay (values for compounds are presented in the same order as found in Table 1): 0.326, 0.33, na, na, na, 0.218, 0.07, na, na, na, na, na, 0.129, 7.6, 0.077, 3.4, na, 0.518, na, 0.059, 0.514, 0.127, na, na, 0.010, na, na, 0.313, 0.275, na, na, 0.0727, na, na, na, na, na, na, 0.194, na, 6.4, 0.22, 0.346, na, na, na, na, na, na, na, na, na, 0.447, na, 0.089, 0.479, 0.489, 0.243, 0.747, 1, na, 1.9, 0.552, 2.1, na, na, na, na, na and na.

[4] = test system: p52 (NF-kB2) nuclear translocation in HeLa cells; assay: NIK p52 Translocation Assay (non-classical NF-kB signaling); type: cell-based; details: Homo sapiens; HeLa cells, 100 ng/mL anti-lymphotoxin beta receptor antibody, 5 hours; read-out: inhibitory value (IC50) for NIK p52 Translocation Assay
Experimental: as §1

T1 sequence (Q99558 whole entry): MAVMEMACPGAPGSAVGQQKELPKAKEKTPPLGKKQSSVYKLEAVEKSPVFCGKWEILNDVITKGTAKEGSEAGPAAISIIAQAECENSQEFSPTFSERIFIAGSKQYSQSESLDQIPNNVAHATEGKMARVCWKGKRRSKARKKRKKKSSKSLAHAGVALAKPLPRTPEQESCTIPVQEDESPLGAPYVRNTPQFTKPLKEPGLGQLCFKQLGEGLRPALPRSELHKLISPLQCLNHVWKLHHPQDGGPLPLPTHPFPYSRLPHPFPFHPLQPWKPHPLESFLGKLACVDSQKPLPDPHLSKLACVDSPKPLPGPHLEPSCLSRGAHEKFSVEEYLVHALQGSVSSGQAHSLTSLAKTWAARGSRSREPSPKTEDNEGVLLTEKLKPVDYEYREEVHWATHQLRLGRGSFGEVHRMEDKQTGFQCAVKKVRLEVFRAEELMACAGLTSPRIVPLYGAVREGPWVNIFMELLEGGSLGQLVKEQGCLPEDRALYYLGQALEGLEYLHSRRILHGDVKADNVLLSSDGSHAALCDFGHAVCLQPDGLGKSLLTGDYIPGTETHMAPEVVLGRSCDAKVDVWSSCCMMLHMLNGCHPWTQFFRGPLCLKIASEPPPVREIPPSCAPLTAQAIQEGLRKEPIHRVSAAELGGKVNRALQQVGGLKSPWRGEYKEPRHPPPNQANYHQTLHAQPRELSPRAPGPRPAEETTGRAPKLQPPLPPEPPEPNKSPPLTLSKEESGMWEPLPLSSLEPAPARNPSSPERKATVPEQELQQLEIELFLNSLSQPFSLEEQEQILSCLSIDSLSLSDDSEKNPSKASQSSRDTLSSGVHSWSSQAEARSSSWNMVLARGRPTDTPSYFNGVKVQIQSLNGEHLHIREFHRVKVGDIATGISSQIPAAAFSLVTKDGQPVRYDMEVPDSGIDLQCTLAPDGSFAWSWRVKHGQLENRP

SMILES	Ki [1] [nM]	IC50 [3] [nM]	IC50 [2] [nM]	IC50 [4] [nM]
Cc1nn(-c2ccnc(N)n2)c2cc(C#CC(C)(O)c3nccs3)ccc12 (stereo not drawn) [Example T1-13, 4-(1-(2-aminopyrimidin-4-yl)-3-methyl-1H-indazol-6-yl)-2-(thiazol-2-yl)but-3-yn-2-ol]	0.262	129	23.1	77
CC(O)(C#Cc1ccc2nc(C3CC3)n(-c3ccnc(N)n3)c2c1)c1nccs1 (stereo not drawn) [Example T1-14, 4-(1-(2-aminopyrimidin-4-yl)-2-cyclopropyl-1H-benzo[d]imidazol-6-yl)-2-(thiazol-2-yl) but-3-yn-2-ol]	6.9	7600	879	3400
CC(O)(C#Cc1ccc2cnn(-c3ccnc(N)n3)c2c1)c1ncco1 (stereo not drawn) [Example T1-15, 4-(1-(2-aminopyrimidin-4-yl)-1H-indazol-6-yl)-2-(oxazol-2-yl)but-3-yn-2-ol]	0.32	77	36.1	
CC1(C(=O)Nc2cnc(N)nc2-n2ncc3ccc(C#CC(C)(O)c4nccs4)cc32)COC1 (stereo not drawn) [Example T1-16, N-(2-amino-4-(6-(3-hydroxy-3-(thiazol-2-yl)but-1-ynyl)-1H-indazol-1-yl)pyrimidin-5-yl)-3-methyloxetane-3-carboxamide]	27	3400	582	518
CC(O)(C#Cc1ccc2c(CN3CCOCC3)nn(-c3ccnc(N)n3)c2c1)c1nccs1 (stereo not drawn) [Example T1-18, 4-(1-(2-aminopyrimidin-4-yl)-3-(morpholinomethyl)-1H-indazol-6-yl)-2-(thiazol-2-yl) but-3-yn-2-ol]	1.7	518	142	59
CC(C)(O)C#Cc1ccc2[nH]c(=O)n(-c3ccnc(N)n3)c2c1 [Example T1-20, 1-(2-aminopyrimidin-4-yl)-6-(3-hydroxy-3-methylbut-1-ynyl)-1H-benzo[d]imidazol-2(3H)-one]	49	59	403	127
CC(O)(C#Cc1ccc2[nH]c(=O)n(-c3ccnc(N)n3)c2c1)c1nccs1 (stereo not drawn) [Example T1-21, 1-(2-aminopyrimidin-4-yl)-6-(3-hydroxy-3-(thiazol-2-yl)but-1-ynyl)-1H-benzo[d] imidazol-2(3H)-one]	0.3	514	59	
CN(C)Cc1nn(-c2ccnc(N)n2)c2cc(C#CC(C)(C)O)ccc12 [Example T1-25, 4-(1-(2-aminopyrimidin-4-yl)-3-((dimethylamino)methyl)-1H-indazol-6-yl)-2-methylbut-3-yn-2-ol]	12	10	57.3	
Cc1cc(C(C)(O)C#Cc2ccc3ncn(-c4ccnc(N)n4)c3c2)no1 (stereo not drawn) [Example T1-28, 4-(1-(2-aminopyrimidin-4-yl)-1H-benzo[d]imidazol-6-yl)-2-(5-methylisoxazol-3-yl) but-3-yn-2-ol]	0.42	313		

Further lines, with some results ahead:

Ki [1] [nM]	IC50 [3] [nM]	SMILES	IC50 [2] [nM]	IC50 [4] [nM]
0.14	220	Cc1nn(-c2ccnc(N)n2)c2cc(C#C[C@@](C)(O)c3nccs3)ccc12 (stereo in doubt) [Example T1-42, 4-(1-(2-aminopyrimidin-4-yl)-3-methyl-1H-indazol-6-yl)-2-(thiazol-2-yl)but-3-yn-2-ol]	14.2	
0.9	275	CN(C)C(=O)c1nn(-c2ccnc(N)n2)c2cc(C#CC(C)(O)c3nccs3)ccc12 (stereo not drawn) [Example T1-29, 1-(2-aminopyrimidin-4-yl)-6-(3-hydroxy-3-(thiazol-2-yl)but-1-ynyl)-N,N-dimethyl-1H-indazole-3-carboxamide]	72.2	72.7
1.3	72.7	CN(C)Cc1nn(-c2ccnc(N)n2)c2cc(C#CC(C)(O)c3ncco3)ccc12 (stereo not drawn) [Example T1-32, 4-(1-(2-aminopyrimidin-4-yl)-3-((dimethylamino)methyl)-1H-indazol-6-yl)-2-(oxazol-2-yl)but-3-yn-2-ol]	589	
0.25	194	CC(O)(C#Cc1cc2c(cc1F)ncn2-c1ccnc(N)n1)c1nccs1 (stereo not drawn) [Example T1-39, 4-(1-(2-aminopyrimidin-4-yl)-5-fluoro-1H-benzo[d]imidazol-6-yl)-2-(thiazol-2-yl)but-3-yn-2-ol]	31.1	220
8.5	6400	Cc1cc(C(C)(O)C#Cc2ccc3ncn(-c4ccnc(N)n4)c3c2)on1 (stereo not drawn) [Example T1-41, 4-(1-(2-aminopyrimidin-4-yl)-1H-benzo[d]imidazol-6-yl)-2-(3-methylisoxazol-5-yl) but-3-yn-2-ol]	309	
0.2	346	CN(C)C(=O)c1nn(-c2ccnc(N)n2)c2cc(C#CC(C)(O)c3ncco3)ccc12 (stereo not drawn) [Example T1-43, 1-(2-aminopyrimidin-4-yl)-6-(3-hydroxy-3-(oxazol-2-yl)but-1-ynyl)-N,N-dimethyl-1H-indazole-3-carboxamide]	51	
